Blank lines part the entries; values can stand above or below the molecule they belong to.
Assays:
[1] = Tissue PEA levels after subcutaneous PEA (LC/MS); format: in vivo, mouse; conditions: daily PEA injections s.c.
Description: LC/MS analysis. PEA was measured by high-performance liquid chromatography/tandem mass spectrometry. Tissue samples were weighed, cut into 1 mm^2 pieces, and incubated with 1 mL of acetonitrile at 4° C. overnight. Samples of the incubates (100 μl) were transferred to 96-well plates, diluted with 250 μL of acetonitrile containing [H2]-ethanolamine-OEA as an internal standard, and injected into the HPLC. HPLC analyses were carried out on a Waters 2790 Alliance system (Milford, Mass.) using a Phenomenex Synergi Polar-RP column (2 mm×150 mm, 4μ; Torrance, Calif.) and a mobile phase of 0.1% formic acid in water (solvent “A”) and 0.1% formic acid in acetonitrile (solvent “B”). Run conditions were isocratic (25% A and 75% B), at a flow rate of 0.3 mL min^−1, column temperature of 45° C., and a run time of 3 minutes. The HPLC system was interfaced with a Micromass Ultima (Beverly, Mass.) tandem mass spectrometer. The samples were analyzed using an electrospray probe in the positive ionization mode with the cone voltage set at 40 V and capillary at 3.2 kV. The source and desolvation temperature settings were 130° C. and 500° C., respectively. The voltage of the CID chamber was set at −17 eV. Multiple reaction monitoring was used for the detection of PEA as [M+H]^+ (m/z 300>62) and the standard as [M+H]^+ (m/z 330>66).

[2] = tested on: mice; test: Magnesium sulfate-evoked writhing test; format: in vivo, mouse; conditions: for average ED50, magnesium sulfate-evoked writhing / number of writhing episodes evoked by magnesium sulfate: subcutaneous, Swiss mice; for average ED50, magnesium sulfate-evoked writhing: n=8; for number of writhing episodes evoked by magnesium sulfate: GW7647 1-30, Wy-14643 4-80, PEA 1-20 mg-kg^−1
Description: Mice received a single dose of magnesium sulfate (120 mg/kg, dissolved in 0.5 ml saline, i.p.) and subsequent writhing episodes were monitored for a period of 30 min thereafter. Drugs were administered in saline/Tween 80/polyethylenglycol, (90/5/5) subcutaneously, 30 minutes before magnesium sulfate.
Next, the effect of PPARα agonists on the nocifensive behavior elicited by intraperitoneal injection of magnesium sulfate in mice, a model of visceral pain (Calignano, et al, Eur J Pharmacol 419, 191-8. (2001)), was explored.
Writhing test. Magnesium sulfate was injected (120 mg-kg^−1 in 0.5 ml saline, i.p.) in 12-h food-deprived mice and measured writhing episodes for 30 min (Calignano, et al, Eur J Pharmacol 419, 191-8. (2001)). Drugs or vehicle were administered by subcutaneous injection 30 min before magnesium sulfate.

[3] = molecular target: T1, PPARγ (Homo sapiens, UniProt P37231); test: PPARγ transactivation assay; format: cell-based; conditions: concentrations as high as 20 μM
T1 construct: expressed in transfected cells
T1 sequence (P37231 1-505): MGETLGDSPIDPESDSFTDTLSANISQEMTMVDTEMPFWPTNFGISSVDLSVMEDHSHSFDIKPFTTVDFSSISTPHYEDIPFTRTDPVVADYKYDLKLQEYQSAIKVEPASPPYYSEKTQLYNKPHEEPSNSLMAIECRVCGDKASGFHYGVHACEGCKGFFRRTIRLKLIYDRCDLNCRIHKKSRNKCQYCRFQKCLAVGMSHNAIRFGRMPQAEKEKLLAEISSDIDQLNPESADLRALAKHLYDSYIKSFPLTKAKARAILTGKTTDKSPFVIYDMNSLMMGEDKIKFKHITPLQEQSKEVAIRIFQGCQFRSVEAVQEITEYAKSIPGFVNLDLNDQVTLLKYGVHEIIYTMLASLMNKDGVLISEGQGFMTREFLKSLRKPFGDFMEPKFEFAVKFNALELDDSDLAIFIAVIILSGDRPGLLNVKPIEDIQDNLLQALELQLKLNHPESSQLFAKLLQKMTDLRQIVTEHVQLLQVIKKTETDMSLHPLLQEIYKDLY
Description: Transactivation assays were performed as previously described [Fu et al., Nature 425:90-93 (2003)].

[4] = tested on: PPARα mRNA; test: PPARα mRNA expression in inflamed mouse skin; format: in vivo; conditions: topical to inflamed abdominal skin; PEA 450 μg, GW7647 755 μg
[5] = molecular target: T2, human CB2 (Homo sapiens, UniProt P34972); test: CB2 receptor binding, [3H]-WIN-55212-2 displacement in CB2-overexpressing CHO cell membranes
T2 construct: purchased Perkin-Elmer, Boston, Mass; host or cells: CHO cells (membranes)

[6] = tested on: Swiss mice; test: Sciatic nerve ligation neuropathy, mechanical and thermal hyperalgesia; format: in vivo, mouse; conditions: for mechanical and thermal pain thresholds in the non-ligated paw of neuropathic mice: data not shown; for neuropathic hypersensitivity (mechanical and thermal pain thresholds), ligated limb: single s.c. dose day 7 and 14 after surgery, 60 min before test, PEA, GW7647 30 mg-kg^−1, gabapentin 60 mg-kg^−1
Description: To examine whether PPARα agonists modulate the persistent pain hypersensitivity associated with nerve injury, peripheral neuropathy was produced in mice by partially ligating the left sciatic nerve, a surgical procedure that results in the development of mechanical and thermal hyperalgesia in the operated limb (Bennett et al., Pain, 33, 87 (1988)).
Sciatic nerve ligation was performed essentially following the method of Bennett and Xie (Bennett et al., Pain 33, 87 (1988)). Briefly, male Swiss mice were anesthetized with sodium pentobarbital, the left sciatic nerve was exposed at mid-thigh level through a small incision and one-third to one-half of the nerve thickness was tightly ligated with a silk thread. The wound was closed with a single muscle suture and skin clips, and dusted with streptomycin powder. In sham-operated animals, the nerve was exposed but not ligated.
Mechanical hyperalgesia was determined by measuring paw withdrawal thresholds to an increasing pressure onto the dorsal surface of the paw using an analgesimeter (Ugo Basile, Italy) with a cut-off of 250 g. Withdrawal thresholds were measured on both the ipsilateral paw (inflamed or ligated) and contralateral paw (uninflamed or unligated) 60 min after subcutaneous drug administration.
Thermal hyperalgesia was assessed by the methods of Hargreaves (Hargreaves et al., Pain, 32, 77 (1988)) by measuring the latency to withdraw the hind paws from a focussed beam of radiant heat applied to the plantar surface, using an appropriate apparatus (Ugo Basile, Italy). The cut-off time was set at 30 sec. The mice were habituated to the apparatus for 10-15 min two days prior to the experiment.

[7] = tested on: C57BL6/J mice; test: TPA-induced edema of abdominal skin, topical administration; format: in vivo, mouse; conditions: PEA 450 μg, GW7647 755 μg

T2 sequence (P34972 whole entry): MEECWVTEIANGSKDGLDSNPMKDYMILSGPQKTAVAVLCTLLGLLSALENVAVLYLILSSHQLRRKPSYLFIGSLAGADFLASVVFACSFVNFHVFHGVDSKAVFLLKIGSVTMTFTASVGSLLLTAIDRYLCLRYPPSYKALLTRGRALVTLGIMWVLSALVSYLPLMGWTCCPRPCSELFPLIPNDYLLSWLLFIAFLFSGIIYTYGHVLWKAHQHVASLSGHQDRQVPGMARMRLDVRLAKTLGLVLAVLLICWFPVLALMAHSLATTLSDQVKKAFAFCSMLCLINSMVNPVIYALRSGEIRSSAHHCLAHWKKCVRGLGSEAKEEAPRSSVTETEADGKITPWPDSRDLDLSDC

brain PEA levels vs vehicle-treated mice [1]: significantly higher
PPARγ activation [3]: did not activate
[^3H]-WIN-55212-2 Binding (% of control) ([5]; Concentration 1 μM): 106.2 ± 2.5 % of control
[^3H]-WIN-55212-2 Binding (% of control) ([5]; Concentration 10 μM): 98.5 ± 4.2 % of control
Compound: CCCCCCCCCCCCCCCC(=O)NCCO [PEA, palmitoylethanolamide]
magnesium sulfate induced writhing in PPARα−/− mice ([2]; PPARα−/− mice, 20 mg-kg^−1 s.c.): did not significantly modify
average ED50, magnesium sulfate-evoked writhing [2]: 9.9 mg/kg
number of writhing episodes evoked by magnesium sulfate [2]: dose-dependently decreased the number of writhing episodes
PPARα mRNA expression [4]: increase in PPARα mRNA expression
mechanical sensitivity thresholds after repeated dosing, vs vehicle-treated mice ([6]; 30 mg-kg^−1 s.c. once a day for 14 consecutive days from surgery): significantly higher
mechanical and thermal pain thresholds in the non-ligated paw of neuropathic mice [6]: did not affect
dose dependence of antihyperalgesic response (mechanical withdrawal, day 14) ([6]; s.c.): dose-dependent
neuropathic hypersensitivity (mechanical and thermal pain thresholds), ligated limb [6]: reversal of neuropathic hypersensitivity
TPA-induced edema of abdominal skin [7]: attenuated TPA-induced edema

Compound: CC(C)(Sc1ccc(CCN(CCCCC2CCCCC2)C(=O)NC2CCCCC2)cc1)C(=O)O [GW7647]
average ED50, magnesium sulfate-evoked writhing [2]: 7.5 mg/kg
number of writhing episodes evoked by magnesium sulfate [2]: dose-dependently decreased the number of writhing episodes
PPARα mRNA expression [4]: increase in PPARα mRNA expression
[^3H]-WIN-55212-2 Binding (% of control) ([5]; Concentration 1 μM): 102.1 ± 4.0 % of control
[^3H]-WIN-55212-2 Binding (% of control) ([5]; Concentration 10 μM): 91.6 ± 4.1 % of control
mechanical and thermal pain thresholds in the non-ligated paw of neuropathic mice [6]: did not affect
neuropathic hypersensitivity (mechanical and thermal pain thresholds), ligated limb [6]: mimicked
TPA-induced edema of abdominal skin [7]: attenuated TPA-induced edema

Reference: patent US20080103209A1, “Compounds And Methods For Treating Non-Inflammatory Pain Using Ppar Alpha Agonists” (The Regents of The University of California, priority 2004, published 2008)
